Experimental data taken from publication PMC11129182, “Development of Inhibitors, Probes, and PROTAC Provides a Complete Toolbox to Study PARK7 in the Living Cell” (Journal of Medicinal Chemistry, 2024).
Where two headings read alike, the source gives them in different places.

Target: T1, PARK7 (Homo sapiens, UniProt Q99497)
T1 sequence (Q99497 1-189): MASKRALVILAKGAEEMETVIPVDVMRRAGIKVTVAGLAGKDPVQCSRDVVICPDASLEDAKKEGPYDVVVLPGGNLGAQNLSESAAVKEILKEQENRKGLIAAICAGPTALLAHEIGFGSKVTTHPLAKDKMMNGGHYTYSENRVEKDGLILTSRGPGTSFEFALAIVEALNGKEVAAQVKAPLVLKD
Assay: High-throughput screen of the crude compound library, PARK7 fluorescence polarization (FP) assay with FP reagent JYQ-107
Format: biochemical
Conditions: 1.25 µM, crude compound library, read-out: HTS FP assay %Inhibition (1.25 µM)
From the text: Therefore, taking JYQ-88 as a starting point, we conducted an optimization to further improve the molecule in terms of inhibitory potency, specificity, and cellular uptake. […] First, a small tailored library was designed and synthesized to investigate whether the introduction of larger, hydrophilic substituents on JYQ-88 would enhance the interaction with the PARK7 pocket. […] The second approach involved the generation of a compound library containing diverse substituents at the azidomethyl position. […] We next performed a high-throughput screen of this crude compound library using our in-house developed PARK7 fluorescence polarization (FP) assay.[15]

| inhibition at 1.25 µM | inhibition at 1.25 µM (FP reagent JYQ-107) | SMILES |
| --- | --- | --- |
| 71.7% |  | N#CN1CC[C@@H](C(=O)Nc2nc3c(s2)CN(C(=O)c2nc(N4CCCC4)ncc2Cl)CC3)C1 [compound 6] |
| 74.6% |  | N#CN1CC[C@@H](C(=O)Nc2nc3c(s2)CN(C(=O)C(Cc2ccccc2)N2CCCOC2=O)CC3)C1 (stereo partly shown) [compound 252] |
|  | 80% | N#CN1CC[C@@H](C(=O)Nc2nc3c(s2)CN(C(=O)c2ccc4c(c2)ncn4C2CCCCO2)CC3)C1 (stereo partly shown) [compound 471] |
| 80.2% |  | COc1ccc(C(=O)N2CCc3nc(NC(=O)[C@@H]4CCN(C#N)C4)sc3C2)cc1S(=O)(=O)NCc1ccccn1 [compound 194] |
| 81% |  | N#CN1CC[C@@H](C(=O)Nc2nc3c(s2)CN(C(=O)Cc2csc(-c4nnc[nH]4)n2)CC3)C1 [compound 202] |
| 68.4% |  | Cc1cc(C)n(-c2ccc(Cl)c(C(=O)N3CCc4nc(NC(=O)[C@@H]5CCN(C#N)C5)sc4C3)n2)n1 [compound 338] |
| 85.7% |  | N#CN1CC[C@@H](C(=O)Nc2nc3c(s2)CN(C(=O)c2ccn(-c4ncc(C(F)(F)F)cc4Cl)n2)CC3)C1 [compound 51] |
| 79.1% |  | N#CN1CC[C@@H](C(=O)Nc2nc3c(s2)CN(C(=O)C2CC(=O)N(CCOc4ccccc4Cl)C2)CC3)C1 (stereo partly shown) [compound 101] |
| 71.9% |  | CN(Cc1cccnc1)S(=O)(=O)c1cc(C(=O)N2CCc3nc(NC(=O)[C@@H]4CCN(C#N)C4)sc3C2)n(C)c1 [compound 119] |
| 73% |  | N#CN1CC[C@@H](C(=O)Nc2nc3c(s2)CN(C(=O)Cc2cc(-c4ccccc4)on2)CC3)C1 [compound 14] |
| 63.8% |  | CN1C(=O)C[C@@H](C(=O)N2CCc3nc(NC(=O)[C@@H]4CCN(C#N)C4)sc3C2)[C@@H]1c1cccnc1 [compound 222] |
| 69.3% |  | N#CN1CC[C@@H](C(=O)Nc2nc3c(s2)CN(C(=O)c2ccc(-n4ncc(Cl)c(Cl)c4=O)cc2)CC3)C1 [compound 102] |
| 70.1% |  | N#CN1CC[C@@H](C(=O)Nc2nc3c(s2)CN(C(=O)c2ccc(-n4cccn4)cc2)CC3)C1 [compound 203] |
| 65.2% |  | Cc1noc(C)c1S(=O)(=O)N1CCC(C(=O)N2CCc3nc(NC(=O)[C@@H]4CCN(C#N)C4)sc3C2)CC1 [compound 198] |
| 61.9% |  | Cc1sc(-n2cnnn2)c(C(=O)N2CCc3nc(NC(=O)[C@@H]4CCN(C#N)C4)sc3C2)c1C [compound 243] |
|  | 78.3% | CCn1ccc(-c2cc(C(=O)N3CCc4nc(NC(=O)[C@@H]5CCN(C#N)C5)sc4C3)no2)n1 [compound 365] |
|  | 78.9% | Cc1n[nH]c(C)c1Cc1ccc(C(=O)N2CCc3nc(NC(=O)[C@@H]4CCN(C#N)C4)sc3C2)o1 [compound 363] |
|  | 75.9% | COC1CC(C(=O)N2CCc3nc(NC(=O)[C@@H]4CCN(C#N)C4)sc3C2)N(C(=O)OCc2ccccc2)C1 (stereo partly shown) [compound 382] |
| 78.4% |  | N#CN1CC[C@@H](C(=O)Nc2nc3c(s2)CN(C(=O)CC(O)(c2nccn2Cc2ccccc2)C(F)(F)F)CC3)C1 (stereo partly shown) [compound 29] |
| 86.1% |  | N#CN1CC[C@@H](C(=O)Nc2nc3c(s2)CN(C(=O)c2csc(CCc4ccccc4)n2)CC3)C1 [compound 300] |
| 75.1% |  | Cn1cc(S(=O)(=O)N2CCOCC2)cc1C(=O)N1CCc2nc(NC(=O)[C@@H]3CCN(C#N)C3)sc2C1 [compound 240] |

| inhibition at 1.25 µM | inhibition at 1.25 µM (FP reagent JYQ-107) | SMILES |
| --- | --- | --- |
| 77.3% |  | N#CN1CC[C@@H](C(=O)Nc2nc3c(s2)CN(C(=O)c2ncoc2-c2cccs2)CC3)C1 [compound 10] |
| 70.6% |  | Cn1ccnc1CN1CCC(C(=O)N2CCc3nc(NC(=O)[C@@H]4CCN(C#N)C4)sc3C2)CC1 [compound 265] |
| 63% |  | CN(C(=O)c1cccs1)c1ccccc1C(=O)N1CCc2nc(NC(=O)[C@@H]3CCN(C#N)C3)sc2C1 [compound 16] |
| 85.9% |  | N#CN1CC[C@@H](C(=O)Nc2nc3c(s2)CN(C(=O)c2ccc(-c4nnco4)cc2)CC3)C1 [compound 301] |
| 74.9% |  | N#CN1CC[C@@H](C(=O)Nc2nc3c(s2)CN(C(=O)c2cc(Cl)nc(N4CCCC4)c2)CC3)C1 [compound 160] |
|  | 72.4% | N#CN1CC[C@@H](C(=O)Nc2nc3c(s2)CN(C(=O)C2CC(=O)N(OCc4ccccc4)C2)CC3)C1 (stereo partly shown) [compound 370] |
| 83.3% |  | N#CN1CC[C@@H](C(=O)Nc2nc3c(s2)CN(C(=O)c2ccc(Cn4cccn4)s2)CC3)C1 [compound 272] |
| 66.6% |  | Cc1ccc(-n2c(C)ccc2C)c(C(=O)N2CCc3nc(NC(=O)[C@@H]4CCN(C#N)C4)sc3C2)c1 [compound 12] |
| 86.4% |  | N#CN1CC[C@@H](C(=O)Nc2nc3c(s2)CN(C(=O)c2ccc(CN4CCOCC4)cc2)CC3)C1 [compound 103] |
| 70% |  | Cc1ccc(S(=O)(=O)N[C@@H](Cc2ccccc2)C(=O)N2CCc3nc(NC(=O)[C@@H]4CCN(C#N)C4)sc3C2)cc1 [compound 207] |
|  | 51.4% | N#CN1CC[C@@H](C(=O)Nc2nc3c(s2)CN(C(=O)c2c(F)c(F)c(O)c(F)c2F)CC3)C1 [compound 442] |
| 67.3% |  | N#CN1CC[C@@H](C(=O)Nc2nc3c(s2)CN(C(=O)C(Cc2c[nH]cn2)NS(=O)(=O)c2ccc(Cl)cc2)CC3)C1 (stereo partly shown) [compound 7] |
| 61.7% |  | Cc1nc(-c2cc(C)n(CCC(=O)N3CCc4nc(NC(=O)[C@@H]5CCN(C#N)C5)sc4C3)c2C)cs1 [compound 196] |
|  | 78.9% | N#CN1CC[C@@H](C(=O)Nc2nc3c(s2)CN(C(=O)C2CC2)CC3)C1 [compound 464] |
| 72.5% |  | N#CN1CC[C@@H](C(=O)Nc2nc3c(s2)CN(C(=O)c2ccc(S(=O)(=O)Nc4cccc(Cl)c4F)o2)CC3)C1 [compound 205] |
|  | 6.9% | N#CN1CC[C@@H](C(=O)Nc2nc3c(s2)CN(C(=O)C(Cl)(Cl)Cl)CC3)C1 [compound 460] |
|  | 67.9% | Cn1c(=O)c2c(ncn2CC(=O)N2CCc3nc(NC(=O)[C@@H]4CCN(C#N)C4)sc3C2)n(C)c1=O [compound 405] |
|  | 76% | Cc1ncc(C(=O)N2CCc3nc(NC(=O)[C@@H]4CCN(C#N)C4)sc3C2)s1 [compound 469] |
| 73.6% |  | Cc1ccccc1COc1cccc(CC(=O)N2CCc3nc(NC(=O)[C@@H]4CCN(C#N)C4)sc3C2)c1 [compound 204] |
|  | 78.9% | N#CN1CC[C@@H](C(=O)Nc2nc3c(s2)CN(C(=O)c2ccc(NNC(=O)OCC4c5ccccc5-c5ccccc54)cc2)CC3)C1 [compound 422] |
|  | 83% | Cn1cc(-c2cc(C(=O)N3CCc4nc(NC(=O)[C@@H]5CCN(C#N)C5)sc4C3)no2)cn1 [compound 384] |

| inhibition at 1.25 µM | inhibition at 1.25 µM (FP reagent JYQ-107) | SMILES |
| --- | --- | --- |
|  | 80.3% | N#CN1CC[C@@H](C(=O)Nc2nc3c(s2)CN(C(=O)C(CCc2ccccc2)c2ccccc2)CC3)C1 (stereo partly shown) [compound 380] |
| 86.7% |  | N#CN1CC[C@@H](C(=O)Nc2nc3c(s2)CN(C(=O)c2cc(Cn4cc(Cl)cn4)cs2)CC3)C1 [compound 191] |
| 68.2% |  | Cn1cc(S(=O)(=O)N2CCCC(C(=O)N3CCc4nc(NC(=O)[C@@H]5CCN(C#N)C5)sc4C3)C2)cn1 (stereo partly shown) [compound 114] |
| 85.1% |  | COc1ccc(S(=O)(=O)N(CCC(=O)N2CCc3nc(NC(=O)[C@@H]4CCN(C#N)C4)sc3C2)Cc2ccccc2)cc1 [compound 342] |
| 68.2% |  | N#CN1CC[C@@H](C(=O)Nc2nc3c(s2)CN(C(=O)C2CCN(c4ccc(=O)[nH]n4)CC2)CC3)C1 [compound 89] |
| 86.4% |  | N#CN1CC[C@@H](C(=O)Nc2nc3c(s2)CN(C(=O)c2ccc(N4CCCC4)c(F)c2)CC3)C1 [compound 211] |
| 81.9% |  | N#CN1CC[C@@H](C(=O)Nc2nc3c(s2)CN(C(=O)C2(c4cccs4)CC2)CC3)C1 [compound 138] |
| 87.3% |  | N#CN1CC[C@@H](C(=O)Nc2nc3c(s2)CN(C(=O)c2ccc(-c4ccccc4)o2)CC3)C1 [compound 166] |
|  | 84.3% | N#CN1CC[C@@H](C(=O)Nc2nc3c(s2)CN(C(=O)c2ccc(/N=N/c4ccccc4)cc2)CC3)C1 [compound 403] |
|  | 72.4% | CC(=O)CCCC(=O)N1CCc2nc(NC(=O)[C@@H]3CCN(C#N)C3)sc2C1 [compound 431] |
|  | 68.7% | CC(C)(C)OC(=O)NC1(C(=O)N2CCc3nc(NC(=O)[C@@H]4CCN(C#N)C4)sc3C2)CC1 [compound 447] |
| 86.7% |  | N#CN1CC[C@@H](C(=O)Nc2nc3c(s2)CN(C(=O)c2cc(C4CC4)n[nH]2)CC3)C1 [compound 209] |
| 56.1% |  | CN(C)S(=O)(=O)c1ccc(N2CCCCC2)c(C(=O)N2CCc3nc(NC(=O)[C@@H]4CCN(C#N)C4)sc3C2)c1 [compound 297] |
| 81.9% |  | N#CN1CC[C@@H](C(=O)Nc2nc3c(s2)CN(C(=O)c2ccc(Cn4ccnn4)o2)CC3)C1 [compound 280] |
| 82.7% |  | N#CN1CC[C@@H](C(=O)Nc2nc3c(s2)CN(C(=O)c2cn(CC4CCOC4)nn2)CC3)C1 (stereo partly shown) [compound 234] |
| 65.7% |  | N#CN1CC[C@@H](C(=O)Nc2nc3c(s2)CN(C(=O)C2(n4cnnn4)CC2)CC3)C1 [compound 34] |
| 67.4% |  | N#CN1CC[C@@H](C(=O)Nc2nc3c(s2)CN(C(=O)C2CC4CCC2O4)CC3)C1 (stereo partly shown) [compound 273] |
| 85.1% |  | N#CN1CC[C@@H](C(=O)Nc2nc3c(s2)CN(C(=O)Cc2ccc(OCCOc4ccccc4)cc2)CC3)C1 [compound 212] |
|  | 77.6% | N#CN1CC[C@@H](C(=O)Nc2nc3c(s2)CN(C(=O)C2CCCN(c4ncccc4C(F)(F)F)C2)CC3)C1 (stereo partly shown) [compound 358] |
